# Laboratory results reported in PubChem BioAssay (NCI).
#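 How tested: cells in 96-well plates exposed to compound for 48 hours at five concentrations. Abbreviation: GI50, concentration required for 50% inhibition of growth. TGI: total growth inhibition.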
# Tests used:
# Test in all cases: NCI anticancer screen, dose series, 48 h
# 786-0 renal = system: 786-0 renal
# A498 renal = system: A498 renal
# A549 NSCLC = system: A549 NSCLC
# ACHN renal = system: ACHN renal
# BT-549 breast = system: BT-549 breast
# CAKI-1 renal = system: CAKI-1 renal
# CCRF-CEM leukemia = system: CCRF-CEM leukemia
# COLO 205 colon = system: COLO 205 colon
# DU-145 prostate = system: DU-145 prostate
# HCC-2998 colon = system: HCC-2998 colon
# HCT-116 colon = system: HCT-116 colon
# HCT-15 colon = system: HCT-15 colon
# HL-60(TB) leukemia = system: HL-60(TB) leukemia
# HOP-62 NSCLC = system: HOP-62 NSCLC
# HOP-92 NSCLC = system: HOP-92 NSCLC
# HS 578T breast = system: HS 578T breast
# HT29 colon = system: HT29 colon
# IGROV1 ovarian = system: IGROV1 ovarian
# K-562 leukemia = system: K-562 leukemia
# KM12 colon = system: KM12 colon
# LOX IMVI melanoma = system: LOX IMVI melanoma
# MALME-3M melanoma = system: MALME-3M melanoma
# MCF7 breast = system: MCF7 breast
# MDA-MB-231 breast = system: MDA-MB-231 breast
# MDA-MB-435 = system: MDA-MB-435
# MOLT-4 leukemia = system: MOLT-4 leukemia
# NCI-H226 lung = system: NCI-H226 lung
# NCI-H23 lung = system: NCI-H23 lung
structure (smiles),measurement,setting,value
COc1cc(-c2nc(-c3ccccc3)c(-c3ccccc3)[nH]2)cc(OC)c1O,GI50,786-0 renal,19.9 µM
same,TGI,786-0 renal,44 µM
same,GI50,A498 renal,0.0762 µM
same,TGI,A498 renal,24.7 µM
same,GI50,A549 NSCLC,19 µM
same,TGI,A549 NSCLC,57 µM
same,GI50,ACHN renal,14.2 µM
same,TGI,ACHN renal,33.1 µM
same,GI50,BT-549 breast,19.5 µM
same,TGI,BT-549 breast,39.5 µM
same,GI50,CAKI-1 renal,20.5 µM
same,TGI,CAKI-1 renal,55.2 µM
same,GI50,CCRF-CEM leukemia,23.4 µM
same,TGI,CCRF-CEM leukemia,70.4 µM
same,GI50,COLO 205 colon,19.6 µM
same,TGI,COLO 205 colon,36.4 µM
same,GI50,DU-145 prostate,17 µM
same,TGI,DU-145 prostate,32.1 µM
same,GI50,HCC-2998 colon,17.1 µM
same,TGI,HCC-2998 colon,32.7 µM
same,GI50,HCT-116 colon,14.4 µM
same,TGI,HCT-116 colon,27.7 µM
same,GI50,HCT-15 colon,13.3 µM
same,TGI,HCT-15 colon,41.4 µM
same,GI50,HL-60(TB) leukemia,31.5 µM
same,TGI,HL-60(TB) leukemia,> 100 µM
same,GI50,HOP-62 NSCLC,21.9 µM
same,TGI,HOP-62 NSCLC,47.8 µM
same,GI50,HOP-92 NSCLC,17.6 µM
same,TGI,HOP-92 NSCLC,35.4 µM
same,GI50,HS 578T breast,19.4 µM
same,TGI,HS 578T breast,52.9 µM
same,GI50,HT29 colon,17.4 µM
same,TGI,HT29 colon,35.6 µM
same,GI50,IGROV1 ovarian,26.9 µM
same,TGI,IGROV1 ovarian,61.2 µM
same,GI50,K-562 leukemia,21 µM
same,TGI,K-562 leukemia,> 100 µM
same,GI50,KM12 colon,15.1 µM
same,TGI,KM12 colon,30.4 µM
same,GI50,LOX IMVI melanoma,17.2 µM
same,TGI,LOX IMVI melanoma,32.6 µM
same,GI50,MALME-3M melanoma,18.8 µM
same,TGI,MALME-3M melanoma,40.3 µM
same,GI50,MCF7 breast,13.2 µM
same,TGI,MCF7 breast,43.4 µM
same,GI50,MDA-MB-231 breast,16.7 µM
same,TGI,MDA-MB-231 breast,34.2 µM
same,GI50,MDA-MB-435,14.5 µM
same,TGI,MDA-MB-435,28.4 µM
same,GI50,MOLT-4 leukemia,17.1 µM
same,TGI,MOLT-4 leukemia,64.9 µM
same,GI50,NCI-H226 lung,21.2 µM
same,TGI,NCI-H226 lung,50 µM
same,GI50,NCI-H23 lung,19 µM
same,TGI,NCI-H23 lung,38.7 µM
